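Where inhibition never reached the appropriate level, the endpoint shown equals the highest concentration tested. Otherwise, values were interpolated linearly from a five-concentration, 48-hour dose response in 96-well plates. Abbreviation: GI50, concentration required for 50% inhibition of growth.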 Active and inactive are the calls of the source. No stated cut-off is given here; in the data, active = GI50 up to about 1.1 µM and inactive = higher.
Columns and labels:
Test in all cases: inhibition of tumour cell growth, NCI panel, 48 h
CAKI-1 = system: CAKI-1
CCRF-CEM = system: CCRF-CEM
HCC 2998 = system: HCC 2998
HCT-15 = system: HCT-15
Hs-578T = system: Hs-578T
K562 = system: K562
LOX IMVI = system: LOX IMVI
MDA-MB-435 = system: MDA-MB-435
Malme-3M = system: Malme-3M
OVCAR-5 = system: OVCAR-5
OVCAR-8 = system: OVCAR-8
RXF 393 = system: RXF 393
SF-295 = system: SF-295
SK-OV-3 = system: SK-OV-3
SN12C = system: SN12C
SNB-19 = system: SNB-19
U-251 = system: U-251
UACC-257 = system: UACC-257
UO-31 = system: UO-31
NCI-H522 = system: NCI-H522

SMILES | GI50 (CAKI-1) | GI50 (CCRF-CEM) | GI50 (HCC 2998) | GI50 (HCT-15) [µM] | GI50 (Hs-578T) | GI50 (K562) | GI50 (LOX IMVI) | GI50 (MDA-MB-435) | GI50 (Malme-3M) | GI50 (OVCAR-5) | GI50 (OVCAR-8) | GI50 (RXF 393) | GI50 (SF-295) | GI50 (SK-OV-3) | GI50 (SN12C) | GI50 (SNB-19) | GI50 (U-251) | GI50 (UACC-257) | GI50 (UO-31) | GI50 (NCI-H522)
Cc1ccc(CC(=O)Nc2ccc(NC(=O)/C=C/NC(=O)/C=C/c3ccc(-c4ccccc4)cc3)cc2C(=O)c2ccccc2)cc1 | 3.29 µM (inactive) | 2.16 µM (inactive) | 0.0237 µM (active) | 2.7 | 1.73 µM (inactive) | 11.1 µM (inactive) | 2.03 µM (inactive) | 3.27 µM (inactive) | 3.39 µM (inactive) | 2.09 µM (inactive) | 0.871 µM (active) | 1.46 µM (inactive) | 1.36 µM (inactive) | 1.85 µM (inactive) | 1.92 µM (inactive) | 3.05 µM (inactive) | 1.85 µM (inactive) | 2.05 µM (inactive) | 3.67 µM (inactive) | –
O=S(=O)(NC(c1ccccc1)(c1cc2ccccc2[nH]1)c1cc2ccccc2n1S(=O)(=O)c1ccccc1)c1ccccc1 (stereo unspecified) | > 100 µM (inactive) | > 100 µM (inactive) | > 100 µM (inactive) | > 100 | > 100 µM (inactive) | > 100 µM (inactive) | > 100 µM (inactive) | > 100 µM (inactive) | 59.2 µM (inactive) | > 100 µM (inactive) | > 100 µM (inactive) | – | > 100 µM (inactive) | 0.292 µM (active) | – | > 100 µM (inactive) | > 100 µM (inactive) | > 100 µM (inactive) | > 100 µM (inactive) | –
O=C1C(NCCF)=C(Cl)C(=O)c2ncccc21 | – | 0.204 µM (active) | 1.21 µM (inactive) | 0.461 | 1.77 µM (inactive) | 0.206 µM (active) | 0.284 µM (active) | 0.188 µM (active) | 0.402 µM (active) | 2.04 µM (inactive) | 0.8 µM (active) | 0.736 µM (active) | 1.49 µM (inactive) | 1.77 µM (inactive) | 1.02 µM (active) | 1.39 µM (inactive) | 0.689 µM (active) | 1.4 µM (inactive) | – | –
C[C@@H]1S[C@H](c2c(F)cccc2Cl)n2c1nc1ccccc12 | 8.43 µM (inactive) | 10.6 µM (inactive) | 13.6 µM (inactive) | 6.76 | 20.6 µM (inactive) | 4.4 µM (inactive) | 12.5 µM (inactive) | 12.6 µM (inactive) | 14.8 µM (inactive) | 33.4 µM (inactive) | 19 µM (inactive) | 14.5 µM (inactive) | 18.5 µM (inactive) | 28.4 µM (inactive) | 15.6 µM (inactive) | 26.4 µM (inactive) | 10.8 µM (inactive) | 14.1 µM (inactive) | 11.9 µM (inactive) | –
Cc1nn(C(=O)Cc2ccccc2)c2c1C(c1ccccc1[N+](=O)[O-])SC(=N)N2 (stereo unspecified) | > 100 µM (inactive) | > 100 µM (inactive) | > 100 µM (inactive) | > 100 | > 100 µM (inactive) | > 100 µM (inactive) | > 100 µM (inactive) | > 100 µM (inactive) | > 100 µM (inactive) | – | > 100 µM (inactive) | – | > 100 µM (inactive) | > 100 µM (inactive) | > 100 µM (inactive) | > 100 µM (inactive) | – | > 100 µM (inactive) | > 100 µM (inactive) | > 100 µM (inactive)
C=CCOCn1ccc(N)nc1=O | > 100 µM (inactive) | > 100 µM (inactive) | > 100 µM (inactive) | > 100 | > 100 µM (inactive) | > 100 µM (inactive) | > 100 µM (inactive) | > 100 µM (inactive) | > 100 µM (inactive) | – | > 100 µM (inactive) | – | > 100 µM (inactive) | > 100 µM (inactive) | > 100 µM (inactive) | > 100 µM (inactive) | – | > 100 µM (inactive) | > 100 µM (inactive) | > 100 µM (inactive)
